Measured values reported in ChEMBL document CHEMBL1136559, “Discovery, SAR, synthesis, pharmacokinetic and biochemical characterization of A-192411: a novel fungicidal lipopeptide-(I)” (Bioorg Med Chem Lett, 2003).
Values after ≈ are worked out from the molar mass of the structure shown. Starred links: 1 amine or outer side, 2 acyl side, 3 side chain; linkers in the order of their positions; H or OH if unused. Positions of bridges follow the written chain, without caps; N, C: chain ends. Non-standard residues stand in square brackets, D forms with d. Residues, ends and D or L forms follow the SMILES beside them. *: point of attachment. Pro(cis-4-guanidino) = NC(N)=N[C@@H]1CN[C@H](C(=O)O)C1; hTyr(3-COCH2NH2) = NCC(=O)c1cc(CC[C@H](N)C(=O)O)ccc1O; X7 = CCCCCCCCOc1ccc(-c2ccc(-c3ccc(C(=O)*)cc3)cc2)cc1; X3 = CCCCCCCCOc1ccc(N2CCN(c3ccc(C(=O)*)cc3)CC2)cc1; X5 = CCCCCCCCN1CCN(c2ccc(-c3ccc(C(=O)*)cc3)cc2)CC1; X6 = NCC(=O)[C@H]1C[C@@H](C(=O)[*:2])N([*:1])C1; Pro(4S-NH2) = N[C@@H]1CN[C@H](C(=O)O)C1; Hyp = O=C(O)[C@@H]1C[C@@H](O)CN1; Orn = NCCC[C@H](N)C(=O)O

Assays:
Format in all cases: functional
[1] = tested on: [Candida] zeylanoides; assay: Antifungal activity against Candida zeylanoides NRRL Y-112; conditions: Dujonia zeylanoides; read-out: MIC
[2] = tested on: Kluyveromyces marxianus; assay: Antifungal activity against Candida kefyr ATCC 28838; conditions: Kluyveromyces marxianus, ATCC 28838; read-out: MIC
[3] = tested on: Candida albicans; assay: Antifungal activity against Candida albicans 579A; conditions: Candida albicans; read-out: MIC
[4] = tested on: Nakaseomyces glabratus; assay: Antifungal activity against Torulopsis glabrata ATCC 15545; conditions: Nakaseomyces glabratus, ATCC 15545; read-out: MIC
[5] = tested on: Candida albicans; assay: Antifungal activity against Candida albicans ATCC 10231; conditions: Candida albicans, ATCC 10231; read-out: MIC
[6] = tested on: Candida albicans; assay: Antifungal activity against Candida albicans CCH 442; conditions: Candida albicans; read-out: MIC
[7] = tested on: Candida albicans; assay: Antifungal activity against Candida albicans CAF-2; conditions: Candida albicans; read-out: MIC
[8] = tested on: Naganishia albida; assay: Antifungal activity against Cryptococcus albidus ATCC 34140; conditions: Naganishia albida, ATCC 34140; read-out: MIC
[9] = tested on: Candida albicans; assay: Antifungal activity against Candida albicans ATCC 62376; conditions: Candida albicans, ATCC 62376; read-out: MIC
[10] = tested on: Aspergillus niger; assay: Antifungal activity against Aspergillus niger ATCC 16404; conditions: Aspergillus niger, ATCC 16404; read-out: MIC
[11] = tested on: Candida albicans; assay: Antifungal activity against Candida albicans ATCC 38247; conditions: Candida albicans, ATCC 38247; read-out: MIC

Row | SMILES | MIC [1] [mg/L] | MIC [2] [mg/L] | MIC [3] [mg/L] | MIC [4] [mg/L] | MIC [5] [mg/L] | MIC [6] [mg/L] | MIC [7] [mg/L] | MIC [8] [mg/L] | MIC [9] [mg/L] | MIC [10] [mg/L] | MIC [11] [mg/L]
1 | CCCCCCCCOc1ccc(N2CCN(c3ccc(C(=O)N[C@H]4CCCNC(=O)[C@@H]5C[C@H](N)CN5C(=O)[C@H]([C@@H](C)O)NC(=O)[C@H](CCc5ccc(O)c(C(=O)CN)c5)NC(=O)[C@@H]5C[C@@H](O)CN5C(=O)[C@H]([C@@H](C)O)NC4=O)cc3)CC2)cc1 (X3-[Orn]T[Hyp][hTyr(3-COCH2NH2)]T[Pro(4S-NH2)]; lactam 1-C) | 0.1 (≈ 0.0856 µM) | 1.56 (≈ 1.34 µM) | 0.1 (≈ 0.0856 µM) | 0.2 (≈ 0.171 µM) | 0.1 (≈ 0.0856 µM) | 0.1 (≈ 0.0856 µM) | 0.1 (≈ 0.0856 µM) | 6.25 (≈ 5.35 µM) | 0.1 (≈ 0.0856 µM) | 1.56 (≈ 1.34 µM) | 0.2 (≈ 0.171 µM)
2 | CCCCCCCCOc1ccc(N2CCN(c3ccc(C(=O)N[C@H]4CCCNC(=O)[C@@H]5C[C@H](N=C(N)N)CN5C(=O)[C@H]([C@@H](C)O)NC(=O)[C@H](CCc5ccc(O)c(C(=O)CN)c5)NC(=O)[C@@H]5C[C@@H](O)CN5C(=O)[C@H]([C@@H](C)O)NC4=O)cc3)CC2)cc1 (X3-[Orn]T[Hyp][hTyr(3-COCH2NH2)]T[Pro(cis-4-guanidino)]; lactam 1-C) | 3.12 (≈ 2.58 µM) | 0.78 (≈ 0.644 µM) | 0.39 (≈ 0.322 µM) | 0.78 (≈ 0.644 µM) | 0.78 (≈ 0.644 µM) | 0.78 (≈ 0.644 µM) | 0.1 (≈ 0.0826 µM) | 6.25 (≈ 5.16 µM) | 0.78 (≈ 0.644 µM) | 6.25 (≈ 5.16 µM) | 0.39 (≈ 0.322 µM)
3 | CCCCCCCCOc1ccc(N2CCN(c3ccc(C(=O)N[C@H]4CCCNC(=O)[C@@H]5C[C@H](C(=O)CN)CN5C(=O)[C@H]([C@@H](C)O)NC(=O)[C@H](CCc5ccc(O)c(C(=O)CN)c5)NC(=O)[C@@H]5C[C@@H](O)CN5C(=O)[C@H]([C@@H](C)O)NC4=O)cc3)CC2)cc1 (X3-[Orn]T[Hyp][hTyr(3-COCH2NH2)]T[X6]; lactam 1-C) | 1.56 (≈ 1.29 µM) | 1.56 (≈ 1.29 µM) | 0.78 (≈ 0.644 µM) | 1.56 (≈ 1.29 µM) | 0.78 (≈ 0.644 µM) | 0.78 (≈ 0.644 µM) | 0.1 (≈ 0.0826 µM) | 12.5 (≈ 10.3 µM) | 0.39 (≈ 0.322 µM) | 12.5 (≈ 10.3 µM) | 0.39 (≈ 0.322 µM)
4 | CCCCCCCCN1CCN(c2ccc(-c3ccc(C(=O)N[C@H]4CCCNC(=O)[C@@H]5C[C@H](C(=O)CN)CN5C(=O)[C@H]([C@@H](C)O)NC(=O)[C@H](CCc5ccc(O)c(C(=O)CN)c5)NC(=O)[C@@H]5CCCN5C(=O)[C@H]([C@@H](C)O)NC4=O)cc3)cc2)CC1 (X5-[Orn]TP[hTyr(3-COCH2NH2)]T[X6]; lactam 1-C) | 0.2 (≈ 0.17 µM) | 1.56 (≈ 1.32 µM) | 0.39 (≈ 0.331 µM) | 1.56 (≈ 1.32 µM) | 0.39 (≈ 0.331 µM) | 0.39 (≈ 0.331 µM) | 0.1 (≈ 0.0849 µM) | 25 (≈ 21.2 µM) | 0.39 (≈ 0.331 µM) | 25 (≈ 21.2 µM) | 0.78 (≈ 0.662 µM)
5 | CCCCCCCCN1CCN(c2ccc(-c3ccc(C(=O)N[C@H]4CCCNC(=O)[C@@H]5C[C@H](N=C(N)N)CN5C(=O)[C@H]([C@@H](C)O)NC(=O)[C@H](CCc5ccc(O)c(C(=O)CN)c5)NC(=O)[C@@H]5C[C@@H](O)CN5C(=O)[C@H]([C@@H](C)O)NC4=O)cc3)cc2)CC1 (X5-[Orn]T[Hyp][hTyr(3-COCH2NH2)]T[Pro(cis-4-guanidino)]; lactam 1-C) | 0.2 (≈ 0.167 µM) | 1.56 (≈ 1.31 µM) | 0.2 (≈ 0.167 µM) | 1.56 (≈ 1.31 µM) | 0.2 (≈ 0.167 µM) | 0.1 (≈ 0.0837 µM) | 0.1 (≈ 0.0837 µM) | 12.5 (≈ 10.5 µM) | 0.2 (≈ 0.167 µM) | 3.12 (≈ 2.61 µM) | 0.2 (≈ 0.167 µM)
6 | CCCCCCCCOc1ccc(-c2ccc(-c3ccc(C(=O)N[C@H]4CCCNC(=O)[C@@H]5C[C@H](N)CN5C(=O)[C@H]([C@@H](C)O)NC(=O)[C@H](CCc5ccc(O)c(C(=O)CN)c5)NC(=O)[C@@H]5CCCN5C(=O)[C@H]([C@@H](C)O)NC4=O)cc3)cc2)cc1 (X7-[Orn]TP[hTyr(3-COCH2NH2)]T[Pro(4S-NH2)]; lactam 1-C) | 0.78 (≈ 0.682 µM) | 0.78 (≈ 0.682 µM) | 0.78 (≈ 0.682 µM) | 0.78 (≈ 0.682 µM) | 1.56 (≈ 1.36 µM) | 0.78 (≈ 0.682 µM) | 0.1 (≈ 0.0874 µM) | 12.5 (≈ 10.9 µM) | 0.78 (≈ 0.682 µM) | 25 (≈ 21.8 µM) | 0.78 (≈ 0.682 µM)
